Measurements reported in US20230100062A1, “ANTIMICROBIAL PEPTIDES” (priority 2019, published 2023).
Values after ≈ are worked out from the molar mass of the structure shown. Square brackets hold non-standard residues; d marks the D form. Ends that are not written are not given here. * marks the point of attachment. For = O=C*

Assays:
S. typhimurium (DA6192) = experiment: Minimum inhibitory concentration, broth microdilution; type: cell-based; settings: 24 h at 37° C.
Procedure: (§1) Minimum Inhibitory Concentrations assay. Minimum inhibitory concentrations (MICs) were determined by broth microdilution on P. aeruginosa, E. coli, S. aureus, M. luteus, B. subtilis, S. typhimurium and K. pneumoniae according to the Clinical and Laboratory Standards Institute. Typically, 100 μL of 0.5-1×10^6 CFU per ml of each bacterium in Mueller Hinton media broth (Oxoid) were incubated in 96-well microtiter plates with 100 μL of serial two-fold dilutions of the corresponding antimicrobial agent (from 100 to 0 μM) at 37° C. on a 3D orbital shaker. The absorbance was measured after the addition of NI01, its derivatives or an antibiotic at 600 nm using a SpectraMax i3× Multi-Mode Microplate Reader (Molecular Devices). MICs were defined as the lowest protein concentration that inhibited visible bacterial growth after 24 h at 37° C.

B. subtilis (ATCC 6633) = experiment: microbe, parasite or virus in culture; type: cell-based
Procedure: as §1

S. aureus (ATCC 6538) = experiment: microbe, parasite or virus in culture; type: cell-based; settings: for antibacterial activity in words: S. aureus, summary of MICs
Procedure: as §1

[1] = tested on: K. pneumoniae (NCTC 5055); experiment: microbe, parasite or virus in culture; type: cell-based
Procedure: as §1

E. coli (ATCC 15597) = experiment: microbe, parasite or virus in culture; type: cell-based
Procedure: as §1

[2] = tested on: P. aeruginosa (ATCC 27853); experiment: microbe, parasite or virus in culture; type: cell-based; settings: for antibacterial activity in words: P. aeruginosa, summary of MICs
Procedure: as §1

M. luteus (ATCC 49732) = experiment: microbe, parasite or virus in culture; type: cell-based
Procedure: as §1

mammalian cells lines = settings: cited from earlier work
Human erythrocytes = experiment: Hemolysis assay; type: cell-based
Procedure: (§2) Hemolysis assay. Hemolysis was determined using human erythrocytes sourced commercially from Cambridge Bioscience Ltd. and used within two days. 10% (vol/vol) suspensions of human erythrocytes were incubated with NI01, its derivatives or antibiotics. The cells were rinsed four times in 10 mM phosphate buffer saline (PBS, GibcoTM), pH 7.2, by repeated centrifugation and re-suspension (3 min at 3000×g). The cells were then incubated at room temperature for 1 h in either deionized water (fully hemolysed control), PBS, or with a corresponding antimicrobial agent in PBS. After centrifugation at 10,000×g for 5 min, the supernatant was separated from the pellet, and the absorbance was measured at 550 nm using a SpectraMax i3× Multi-Mode Microplate Reader (Molecular Devices). Absorbance of the suspension treated with deionized water defined complete hemolysis. The values given in Table S2 correspond to concentrations needed to lyse half of the sample population (50% lysis of erythrocytes) and are expressed as median hemolytic doses—HD50.

Hemolysis assay = type: cell-based, human; settings: human, human erythrocytes, 10% (vol/vol) suspension, pH 7.2
Procedure: as §2

[3] = In-liquid AFM imaging of SLBs mimicking bacterial membranes; settings: 0.25 μM
Description: Lipid Vesicle Preparation. 1-palmitoyl-2-oleoyl-glycero-3-phosphocholine (POPC) with 1-palmitoyl-2-oleoyl-sn-glycero-3-phospho-(1′-rac-glycerol) (POPG) lipids used for vesicle construction were from Avanti Polar Lipids (Alabaster, USA). POPC was used as mammalian model membranes, and POPC/POPG (3:1, molar ratios) was used as bacterial model membranes. The lipids were weighted up, dissolved in chloroform-methanol (2:1, vol/vol), and dried under a nitrogen stream to form a thin film. The film was hydrated in 10 mM phosphate buffer (pH 7.4), vortexed for 2 min and bath sonicated for 30 min. The obtained suspension was extruded using a hand-held extruder (Avanti Polar lipids) (29 times, polycarbonate filter, 0.05 μm) to give a clear solution of small unilamellar vesicles, which were analysed (50 nm) by photon correlation spectroscopy (ZEN3600; Malvern Instruments, UK) following the re-suspension of vesicles to a final concentration of 1 mg/mL. Dynamic light scattering batch measurements were carried out in a low volume disposable cuvette at 25° C. Hydrodynamic radii were obtained through the fitting of autocorrelation data using the manufacturer's Dispersion Technology Software (version 5.10).
Preparation of SLBs for in-liquid AFM imaging. SLBs were formed using a vesicle fusion method as described elsewhere.^19 Freshly prepared vesicles (1.5 μL, 3 mg/mL) were added to cleaved mica that was pre-hydrated in 20 mM MOPS, 120 mM NaCl, 20 mM MgCl2 (pH 7.4).
After incubation over 45 min, the samples were washed 10 times with imaging buffer (20 mM MOPS, with 120 mM NaCl, pH 7.4) to remove unfused vesicles. The resulting SLBs were checked to confirm they were defect free. Mica discs (Agar Scientific, Stansted, UK) were glued to a metal puck, and freshly cleaved prior to lipid deposition.
In-liquid AFM imaging of SLBs. The topographic imaging of SLBs in aqueous buffers was performed on a Multimode 8 AFM system (Bruker AXS, USA) using Peak Force Tapping™ mode and MSNL-E cantilevers (Bruker AFM probes, USA). Images were taken at the PeakForce frequency of 2 kHz, PeakForce amplitude of 10-20 nm and PeakForce set-point of 10-30 mV (<100 pN). The images were then processed using Gwyddion (http://gwyddion.net) for line-by-line background subtraction (flattening) and plane fitting. NI01 or its derivatives were introduced into a 100-μL fluid cell (Bruker AXS, USA) to the final concentrations stated.

EMRSA (12817) = type: cell-based, S. aureus
Procedure: as §1

EMRSA (12873) = type: cell-based, S. aureus
Procedure: as §1

EMRSA (12845) = type: cell-based, S. aureus
Procedure: as §1

[4] = Thermal unfolding by CD spectroscopy; type: physicochemical; settings: 20 μM protein, pH 7.4, 10 mM phosphate buffer
Procedure: Circular Dichroism Spectroscopy. Aqueous peptide solutions (300 μL, at a given concentration) were prepared in filtered (0.22 μm), 10 mM phosphate buffer, pH 7.4. CD spectra recorded in the presence of synthetic membranes are for L/P molar ratio of 100. All CD spectra were recorded on a JASCO J-810 spectropolarimeter fitted with a Peltier temperature controller. All measurements were taken in ellipticities in mdeg and converted to molar ellipticities by normalizing for the concentration of peptide bonds and cuvette path length ([θ], deg cm2 dmol−1 res−1). The data collected with a 1 nm step and 1 s collection time per step are presented as the average of 4 scans. Thermal denaturation curves were recorded with 2° C. intervals using 1 nm bandwidth, 180 s equilibration time for each spectrum and with 2° C./min ramp rate.

[5] = K. pneumoniae (NCTC 5055), 24 h at 37° C.

## CC1(C)S[C@@H]2[C@H](NC(=O)[C@H](N)c3ccccc3)C(=O)N2[C@H]1C(=O)O [ampicillin, reference compound]
S. typhimurium (DA6192); Salmonella enterica
  MIC: 8 µg/mL (≈ 22.9 µM)
B. subtilis (ATCC 6633); Bacillus subtilis, ATCC6633, B. subtilis (ATCC 6633), 24 h at 37° C., read-out: Minimum Inhibitory Concentration
  MIC: 9 µg/mL (≈ 25.8 µM)
S. aureus (ATCC 6538); Staphylococcus aureus, ATCC6538, S. aureus (ATCC 6538), 24 h at 37° C., read-out: Minimum Inhibitory Concentration
  MIC: 1 µg/mL (≈ 2.86 µM)
[1]; Klebsiella pneumoniae, NCTC5055, K. pneumoniae (NCTC 5055), 24 h at 37° C., read-out: Minimum Inhibitory Concentration
  MIC: 5 µg/mL (≈ 14.3 µM)
E. coli (ATCC 15597); Escherichia coli, ATCC15597, E. coli (ATCC 15597), 24 h at 37° C., read-out: Minimum Inhibitory Concentration
  MIC: 24 µg/mL (≈ 68.7 µM)
[2]; Pseudomonas aeruginosa, ATCC27853, P. aeruginosa (ATCC 27853), 24 h at 37° C., read-out: Minimum Inhibitory Concentration
  MIC: 8 µg/mL (≈ 22.9 µM)
M. luteus (ATCC 49732); Micrococcus luteus, ATCC49732, M. luteus (ATCC 49732), 24 h at 37° C., read-out: Minimum Inhibitory Concentration
  MIC: 1 µg/mL (≈ 2.86 µM)

## CC[C@H](C)[C@H](NC(=O)CN)C(=O)NCC(=O)N[C@@H](C)C(=O)N[C@H](C(=O)N[C@@H](CC(C)C)C(=O)N[C@@H](CCCCN)C(=O)N[C@H](C(=O)N[C@@H](CC(C)C)C(=O)N[C@H](C(=O)N[C@H](C(=O)NCC(=O)N[C@@H](CC(C)C)C(=O)N1CCC[C@H]1C(=O)N[C@@H](C)C(=O)N[C@@H](CC(C)C)C(=O)N[C@H](C(=O)N[C@@H](CO)C(=O)N[C@@H](Cc1c[nH]c2ccccc12)C(=O)N[C@H](C(=O)N[C@@H](CCCCN)C(=O)N[C@@H](CCCNC(=N)N)C(=O)N[C@@H](CCCCN)C(=O)N[C@@H](CCCNC(=N)N)C(=O)N[C@@H](CCC(N)=O)C(=O)N[C@@H](CCC(N)=O)C(N)=O)[C@@H](C)CC)[C@@H](C)CC)[C@@H](C)O)[C@@H](C)O)C(C)C)C(C)C [melittin]
[1]; [5]
  Minimum Inhibitory Concentration: 9 µg/mL

## For-MAAFMKLIQFLATKGQKYVSLAWKHKGTILKWINAGQSFEWIYKQIKKLWA [NI01, epidermicin NI01]
Mammalian cells lines
  toxicity towards mammalian cells lines: negligible levels of toxicity
Human erythrocytes
  hemolytic activity in words: non-hemolytic
Hemolysis assay
  HC50 at 1 h: 500 µg/mL

## For-[dM][dA][dA][dF][dM][dK][dL][dI][dQ][dF][dL][dA][dT][dK]G[dQ][dK][dY][dV][dS][dL][dA][dW][dK][dH][dK]G[dT][dI][dL][dK][dW][dI][dN][dA]G[dQ][dS][dF][dE][dW][dI][dY][dK][dQ][dI][dK][dK][dL][dW][dA] [NI01 D-form]
[3]
  mode of membrane disruption (AFM): strikingly similar pattern to that of the all-L form
Human erythrocytes
  hemolytic activity in words: non-hemolytic
Hemolysis assay
  HC50 at 1 h: 600 µg/mL

## H-MAAFMKLIQFLATKGQKYVSLAWKHKGTILKWIN-NH2 [α1α2α3]
[3]
  mode of membrane disruption (AFM): two predicted modes of membrane disruption were evident
EMRSA (12817)
  Minimum Inhibitory Concentration: 32 µg/mL
EMRSA (12873)
  Minimum Inhibitory Concentration: 32 µg/mL
EMRSA (12845)
  Minimum Inhibitory Concentration: 32 µg/mL
Hemolysis assay
  HC50 at 1 h: 200 µg/mL
B. subtilis (ATCC 6633); ATCC 6633, 24 h
  Minimum Inhibitory Concentration: 6 µg/mL
S. aureus (ATCC 6538); ATCC 6538, 24 h
  Minimum Inhibitory Concentration: 6 µg/mL
[1]; NCTC 5055, 24 h
  Minimum Inhibitory Concentration: 20 µg/mL
E. coli (ATCC 15597); ATCC 15597, 24 h
  Minimum Inhibitory Concentration: 6 µg/mL
[2]; ATCC 27853, 24 h
  Minimum Inhibitory Concentration: 12 µg/mL
M. luteus (ATCC 49732); ATCC 49732, 24 h
  Minimum Inhibitory Concentration: 6 µg/mL

## KGTILKWINAGQSFEWIYKQIKKLWA-NH2 [α3α4]
[3]
  mode of membrane disruption (AFM): mixed mode of membrane disruption
Hemolysis assay
  HC50 at 1 h: 150 µg/mL
S. aureus (ATCC 6538)
  antibacterial activity in words: equally effective
[2]
  antibacterial activity in words: ineffective

## KYVSLAWKHKGTILKWINAGQSFEWIYKQIKKLWA-NH2 [α2α3α4]
Hemolysis assay
  HC50 at 1 h: 200 µg/mL

## MAAFMKLIQFLATKGQKYVSLAWK-NH2 [α1α2]
[3]
  mode of membrane disruption (AFM): extended petal-like pores
Hemolysis assay
  HC50 at 1 h: 150 µg/mL
S. aureus (ATCC 6538)
  antibacterial activity in words: equally effective
[2]
  antibacterial activity in words: ineffective

## MAAFMRLIQFLATRGQRYVSLAWRRRGTILRWINAGQSFEWIYRQIRRLWA-NH2 [NI01 R-mutant]
[3]
  mode of membrane disruption (AFM): exclusively thinning patches
Human erythrocytes
  hemolytic activity in words: drastically increased
Hemolysis assay
  HC50 at 1 h: 250 µg/mL
B. subtilis (ATCC 6633); ATCC 6633, 24 h
  Minimum Inhibitory Concentration: 18 µg/mL
S. aureus (ATCC 6538); ATCC 6538, 24 h
  Minimum Inhibitory Concentration: 5 µg/mL
[1]; NCTC 5055, 24 h
  Minimum Inhibitory Concentration: 18 µg/mL
E. coli (ATCC 15597); ATCC 15597, 24 h
  Minimum Inhibitory Concentration: 9 µg/mL
[2]; ATCC 27853, 24 h
  Minimum Inhibitory Concentration: >300 µg/mL
M. luteus (ATCC 49732); ATCC 49732, 24 h
  Minimum Inhibitory Concentration: 2 µg/mL

## QKYVSLAWKHKGTILKWINA-NH2 [α2α3]
Human erythrocytes
  concentration showing no hemolytic activity: > 600 µg/mL

## aureocin A53
[3]
  mode of membrane disruption (AFM): membrane thinning patches and transmembrane lesions and pores
[4]
  transition midpoint (TM) of thermal unfolding: ~54 °C

## polymyxin B [reference compound]
Human erythrocytes; Human erythrocytes, 1 h at room temperature
  HD30, median hemolytic doses to achieve 50% lysis: 350 µg/mL
S. typhimurium (DA6192)
  Minimum Inhibitory Concentration: 2 µg/mL
B. subtilis (ATCC 6633); B. subtilis (ATCC 6633), 24 h at 37° C.
  Minimum Inhibitory Concentration: 4 µg/mL
S. aureus (ATCC 6538); S. aureus (ATCC 6538), 24 h at 37° C.
  Minimum Inhibitory Concentration: 32 µg/mL
[1]; [5]
  Minimum Inhibitory Concentration: 4 µg/mL
E. coli (ATCC 15597); E. coli (ATCC 15597), 24 h at 37° C.
  Minimum Inhibitory Concentration: 2 µg/mL
[2]; P. aeruginosa (ATCC 27853), 24 h at 37° C.
  Minimum Inhibitory Concentration: 2 µg/mL
M. luteus (ATCC 49732); M. luteus (ATCC 49732), 24 h at 37° C.
  Minimum Inhibitory Concentration: 2 µg/mL
